Read-outs that look alike come from different tables or passages of the source.
What was measured:
Format in all cases: cell-based
[1] = molecular target: T1, human α1G T-type channels (Homo sapiens, UniProt O43497); assay: T-type calcium channel block, whole cell patch clamp in HEK cells (α1G); conditions: HEK cells, patch clamp, mainly non-inactivated protocol; values above 10 μM shown as 10 μM, below 0.30 μM shown as 0.30 μM; read-out: T-type Calcium Channel Block α1G IC50
T1 construct: expressed in transfected cells; host or cells: HEK 293

[2] = molecular target: T2, human α1H T-type channels (Homo sapiens, UniProt O95180); assay: T-type calcium channel block, whole cell patch clamp in HEK cells (α1H); conditions: HEK cells, patch clamp, mainly non-inactivated protocol; values above 10 μM shown as 10 μM; read-out: T-type Calcium Channel Block α1H IC50
T2 construct: expressed in transfected cells; host or cells: HEK 293
T2 sequence (O95180 whole entry): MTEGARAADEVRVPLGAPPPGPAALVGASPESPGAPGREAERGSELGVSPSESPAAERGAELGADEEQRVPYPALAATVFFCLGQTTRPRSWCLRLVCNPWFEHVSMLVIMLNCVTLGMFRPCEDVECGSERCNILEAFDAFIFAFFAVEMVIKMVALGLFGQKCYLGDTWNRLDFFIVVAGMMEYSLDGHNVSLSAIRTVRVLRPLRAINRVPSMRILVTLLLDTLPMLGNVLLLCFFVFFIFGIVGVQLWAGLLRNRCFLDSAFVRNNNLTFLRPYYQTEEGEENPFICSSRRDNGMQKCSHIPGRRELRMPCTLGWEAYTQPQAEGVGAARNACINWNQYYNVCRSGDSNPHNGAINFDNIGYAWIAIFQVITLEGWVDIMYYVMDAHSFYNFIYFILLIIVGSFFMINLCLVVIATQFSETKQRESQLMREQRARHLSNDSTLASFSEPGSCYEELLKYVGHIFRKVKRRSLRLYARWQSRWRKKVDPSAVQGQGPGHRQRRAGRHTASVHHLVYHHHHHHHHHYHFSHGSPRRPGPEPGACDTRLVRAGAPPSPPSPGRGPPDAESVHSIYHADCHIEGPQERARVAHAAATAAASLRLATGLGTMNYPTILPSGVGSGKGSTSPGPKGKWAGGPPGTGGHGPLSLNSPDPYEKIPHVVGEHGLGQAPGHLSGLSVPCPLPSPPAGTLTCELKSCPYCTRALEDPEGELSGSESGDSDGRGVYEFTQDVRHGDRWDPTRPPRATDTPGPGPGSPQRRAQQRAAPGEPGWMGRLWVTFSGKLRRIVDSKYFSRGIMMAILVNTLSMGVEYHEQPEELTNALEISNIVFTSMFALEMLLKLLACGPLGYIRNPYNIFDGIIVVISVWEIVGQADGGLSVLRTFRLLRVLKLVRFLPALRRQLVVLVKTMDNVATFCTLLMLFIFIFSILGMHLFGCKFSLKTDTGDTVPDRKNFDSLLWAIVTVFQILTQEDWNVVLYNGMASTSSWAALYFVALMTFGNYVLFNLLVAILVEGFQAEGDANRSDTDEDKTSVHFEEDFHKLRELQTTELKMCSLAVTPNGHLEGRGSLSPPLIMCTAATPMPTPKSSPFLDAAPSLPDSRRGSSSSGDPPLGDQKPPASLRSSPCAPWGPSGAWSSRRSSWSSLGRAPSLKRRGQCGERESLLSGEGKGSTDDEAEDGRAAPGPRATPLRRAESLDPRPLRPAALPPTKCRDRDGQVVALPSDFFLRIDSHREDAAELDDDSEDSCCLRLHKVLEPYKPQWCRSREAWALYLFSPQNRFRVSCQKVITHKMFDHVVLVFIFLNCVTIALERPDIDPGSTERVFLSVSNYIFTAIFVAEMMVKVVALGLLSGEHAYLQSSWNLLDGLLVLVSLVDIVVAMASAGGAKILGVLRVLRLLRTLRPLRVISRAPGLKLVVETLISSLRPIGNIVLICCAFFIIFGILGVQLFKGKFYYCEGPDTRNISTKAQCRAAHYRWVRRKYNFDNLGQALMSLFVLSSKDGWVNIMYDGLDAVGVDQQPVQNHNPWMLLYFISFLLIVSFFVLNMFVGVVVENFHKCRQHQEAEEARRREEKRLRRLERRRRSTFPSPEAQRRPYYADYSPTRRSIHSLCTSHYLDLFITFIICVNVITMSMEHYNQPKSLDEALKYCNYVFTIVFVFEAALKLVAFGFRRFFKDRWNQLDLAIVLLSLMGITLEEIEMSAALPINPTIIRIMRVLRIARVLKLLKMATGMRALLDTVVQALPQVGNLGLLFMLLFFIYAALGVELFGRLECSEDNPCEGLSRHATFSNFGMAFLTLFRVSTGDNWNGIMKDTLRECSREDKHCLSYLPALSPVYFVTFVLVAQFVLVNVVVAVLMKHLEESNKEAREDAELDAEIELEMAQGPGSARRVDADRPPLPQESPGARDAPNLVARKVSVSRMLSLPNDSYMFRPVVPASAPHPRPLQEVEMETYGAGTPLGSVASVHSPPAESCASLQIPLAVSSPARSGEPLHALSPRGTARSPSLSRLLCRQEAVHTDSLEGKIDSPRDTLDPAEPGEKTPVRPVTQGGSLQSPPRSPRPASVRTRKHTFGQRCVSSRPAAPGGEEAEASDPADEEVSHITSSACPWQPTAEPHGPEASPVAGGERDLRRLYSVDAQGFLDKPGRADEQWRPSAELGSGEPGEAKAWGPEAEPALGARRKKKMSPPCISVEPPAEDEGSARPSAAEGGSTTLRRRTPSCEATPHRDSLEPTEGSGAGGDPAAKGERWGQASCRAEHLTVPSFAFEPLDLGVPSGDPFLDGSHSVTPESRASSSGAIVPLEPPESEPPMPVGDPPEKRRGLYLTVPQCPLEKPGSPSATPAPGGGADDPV

hERG K+ channel = hERG K+ channel (Homo sapiens, UniProt Q12809); assay: hERG K+ Channel Block
hERG K+ channel, sequence (Q12809 whole entry): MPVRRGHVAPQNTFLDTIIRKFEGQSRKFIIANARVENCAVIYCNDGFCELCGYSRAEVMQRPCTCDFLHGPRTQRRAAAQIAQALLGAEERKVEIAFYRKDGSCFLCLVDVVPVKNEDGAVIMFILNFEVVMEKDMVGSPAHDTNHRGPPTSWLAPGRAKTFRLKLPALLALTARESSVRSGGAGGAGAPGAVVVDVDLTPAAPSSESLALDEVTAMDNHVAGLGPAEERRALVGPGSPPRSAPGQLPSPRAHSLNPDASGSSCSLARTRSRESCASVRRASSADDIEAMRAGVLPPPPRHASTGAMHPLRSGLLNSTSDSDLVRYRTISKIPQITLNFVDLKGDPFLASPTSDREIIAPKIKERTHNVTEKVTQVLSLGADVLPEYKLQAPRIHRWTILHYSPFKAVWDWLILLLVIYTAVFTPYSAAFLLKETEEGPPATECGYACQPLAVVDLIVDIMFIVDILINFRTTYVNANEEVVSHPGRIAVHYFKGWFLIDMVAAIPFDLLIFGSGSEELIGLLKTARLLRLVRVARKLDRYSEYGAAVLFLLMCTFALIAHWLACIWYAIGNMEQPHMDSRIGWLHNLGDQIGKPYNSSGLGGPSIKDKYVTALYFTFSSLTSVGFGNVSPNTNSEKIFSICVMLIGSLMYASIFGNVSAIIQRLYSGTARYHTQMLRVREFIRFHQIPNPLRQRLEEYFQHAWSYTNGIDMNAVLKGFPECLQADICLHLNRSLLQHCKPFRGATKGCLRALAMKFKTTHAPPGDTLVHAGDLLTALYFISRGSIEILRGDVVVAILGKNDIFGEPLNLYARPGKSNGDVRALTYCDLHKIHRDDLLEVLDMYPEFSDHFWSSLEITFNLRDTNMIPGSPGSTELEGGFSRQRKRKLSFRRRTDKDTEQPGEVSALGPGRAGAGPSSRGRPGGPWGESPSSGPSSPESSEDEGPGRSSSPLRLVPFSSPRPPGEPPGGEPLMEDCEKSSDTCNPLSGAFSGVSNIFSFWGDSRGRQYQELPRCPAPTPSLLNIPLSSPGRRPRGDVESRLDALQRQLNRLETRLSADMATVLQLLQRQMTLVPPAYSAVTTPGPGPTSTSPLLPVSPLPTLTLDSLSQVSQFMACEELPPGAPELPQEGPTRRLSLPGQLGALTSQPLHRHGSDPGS

SMILES | IC50 [1] | IC50 [2] | IC50 (hERG K+ channel) | IC50 (hERG K+ channel; human)
O=C(CC1CCN(CC(O)C(F)(F)F)CC1)Nc1cc(C(F)(F)F)cc(C(F)(F)F)c1 (stereo not drawn) [Compound 178, N-(3,5-bis(trifluoromethyl)phenyl)-2-(1-(3,3,3-trifluoro-2-hydroxypropyl)piperidin-4-yl)acetamide] | 720 nM | 5100 nM | 1600 nM | –
CN(C(=O)CN1CCC(CNC(=O)c2cccc(OC(F)(F)F)c2)CC1)C(C)(C)C [Compound 545, N-((1-(2-(tert-butyl(methyl)amino)-2-oxoethyl)piperidin-4-yl)methyl)-3-(trifluoromethoxy)benzamide] | 470 nM | 210 nM | 6600 nM | –
CN(C(=O)CN1CCC(CNC(=O)c2cccc(C(F)(F)F)c2)CC1)C(C)(C)C [Compound 542, N-((1-(2-(tert-butyl(methyl)amino)-2-oxoethyl)piperidin-4-yl)methyl)-3-(trifluoromethyl)benzamide] | 980 nM | 450 nM | 6400 nM | –
Cc1cc(F)cc(C(=O)NCC2CCN(CCNC(=O)C(C)(C)C(F)(F)F)CC2)c1 [Compound 489, 3-fluoro-5-methyl-N-((1-(2-(3,3,3-trifluoro-2,2-dimethylpropanamido)ethyl)piperidin-4-yl)methyl)benzamide] | 370 nM | 120 nM | 8800 nM | –
O=C(NCC1CCN(CCNC(=O)C2(C(F)(F)F)CC2)CC1)c1cccc(C(F)(F)F)c1 [Compound 473, 3-(trifluoromethyl)-N-((1-(2-(1-(trifluoromethyl)cyclopropanecarbox-amido)ethyl)piperidin-4-yl)methyl) benzamide] | 680 nM | 130 nM | 2200 nM | –
CC(C)(C(=O)NCCN1CCC(CNC(=O)c2cccc(Br)c2)CC1)C(F)(F)F [Compound 493, 3-bromo-N-((1-(2-(3,3,3-trifluoro-2,2-dimethylpropanamido)ethyl)piperidin-4-yl)methyl)benzamide] | < 300 nM | 60 nM | 2500 nM | –
CC(C)(NC(=O)CN1CCC(CNC(=O)c2cc(F)cc(Cl)c2)CC1)C(F)(F)F [Compound 461, 3-chloro-5-fluoro-N-((1-(2-oxo-2-(1,1,1-trifluoro-2-methylpropan-2-ylamino)ethyl)piperidin-4-yl)methyl)benzamide] | < 300 nM | 20 nM | 7400 nM | –
COc1cc(OC)cc(C(=O)NCC2CCN(CC(=O)NC(C)(C)C(F)(F)F)CC2)c1 [Compound 457, 3,5-dimethoxy-N-((1-(2-oxo-2-(1,1,1-trifluoro-2-methylpropan-2-ylamino)ethyl)piperidin-4-yl)methyl)benzamide] | < 300 nM | 50 nM | – | ≥ 16600 nM
O=C(NCC1CCN(CCNC(=O)C2(C(F)(F)F)CC2)CC1)c1cc(F)cc(C(F)(F)F)c1 [Compound 343, 3-fluoro-5-(trifluoromethyl)-N-((1-(2-(1-(trifluoromethyl)cyclopropanecarbox-amido)ethyl)piperidin-4-yl)methyl) benzamide] | 330 nM | 130 nM | 6200 nM | –
Cc1cc(F)cc(C(=O)NCC2CCN(CC(=O)NC3(C)CCC3)CC2)c1 [Compound 476, 3-fluoro-5-methyl-N-((1-(2-(1-mtrhylcyclobutylamino)-2-oxoethyl)piperidin-4-yl)methyl) benzamide] | < 300 nM | 140 nM | – | ≥ 16600 nM
NC1(CN2CCC(CC(=O)Nc3cc(C(F)(F)F)cc(C(F)(F)F)c3)CC2)CCCC1 [Compound 159, 2-(1-((1-aminocyclopentyl)methyl)piperidin-4-yl)-N-(3,5-bis(trifluoromethyl)phenyl)acetamide] | 310 nM | 3360 nM | 1300 nM | –
Cc1cc(F)cc(C(=O)NCC2CCN(CC(=O)NC(C)(C)C)CC2)c1 [Compound 363, N-((1-(2-(tert-buylamino)-2-oxoethyl)piperidin-4-yl)methyl)-3-fluoro-5-methylbenzamide] | < 300 nM | 200 nM | – | ≥ 8300 nM
CC(C)NC(=O)CN1CCC(CNC(=O)c2cc(C(F)(F)F)cc(C(F)(F)F)c2)CC1 [Compound 344, N-((1-(2-(isopropylamino)-2-oxoethyl)piperidin-4-yl)methyl)-3,5-bis(trifluoromethyl)benzamide] | < 300 nM | 120 nM | 9100 nM | –
CC(C)(C)NC(=O)CN1CCC(CNC(=O)c2cccc(OC(F)(F)F)c2)CC1 [Compound 375, N-((1-(2-(tert-butylamino)-2-oxoethyl)piperidin-4-yl)methyl)-3-(trifluoromethoxy)benzamide] | < 300 nM | 70 nM | 8800 nM | –
CN(C(=O)CN1CCC(CNC(=O)c2cccc(Cl)c2)CC1)C(C)(C)C(F)(F)F [Compound 580, 3-chloro-N-((1-(2-(methyl(1,1,1-trifluoro-2-methylpropan-2-yl)amino)-2-oxoethyl)piperidin-4-yl)methyl)benzamide] | < 300 nM | 220 nM | – | ≥ 8300 nM

Now from value to compound, other results behind:

IC50 [1] | IC50 [2] | SMILES | IC50 (hERG K+ channel) | IC50 (hERG K+ channel; human)
< 300 nM | 30 nM | CC(C)(NC(=O)CN1CCC(CNC(=O)c2cccc(OC(F)(F)F)c2)CC1)C(F)(F)F [Compound 462, N-((1-(2-oxo-2-(1,1,1-trifluoro-2-methylpropan-2-ylamino)ethyl)piperidin-4-yl)methyl)-3-(trifluoromethoxy) benzamide] | 4100 nM | –
< 300 nM | 70 nM | CC(C)(C)C(O)CN1CCC(CC(=O)Nc2cc(C(F)(F)F)cc(C(F)(F)F)c2)CC1 (stereo not drawn) [Compound 153, N-(3,5-bis(trifluoromethyl)phenyl)-2-(1-(2-hydroxy-3,3-dimethylbutyl)piperidin-4-yl)acetamide] | 2800 nM | –
< 300 nM | 90 nM | O=C(NCC1CCN(CC(=O)N2CCC[C@H]2C(F)(F)F)CC1)c1cccc(Br)c1 [Compound 468, (S)-3-bromo-N-((1-(2-oxo-2-(2-(trifluoromethyl)pyrrolidin-1-yl)ethyl)piperidin-4-yl)methyl)benzamide] | 4200 nM | –
< 300 nM | 60 nM | CN(C(=O)CN1CCC(CNC(=O)c2cc(Cl)cc(Cl)c2)CC1)C(C)(C)C [Compound 552, N-((1-(2-(tert-butyl(methyl)amino)-2-oxoethyl)piperidin-4-yl)methyl)-3,5-dichlorobenzamide] | 1800 nM | –
< 300 nM | 210 nM | COc1cc(F)cc(C(=O)NCC2CCN(CC(=O)N(C)C(C)(C)C(F)(F)F)CC2)c1 [Compound 581, 3-fluoro-5-methoxy-N-((1-(2-(methyl(1,1,1-trifluoro-2-methyl-propan-2-yl)amino)-2-oxoethyl)piperidin-4-yl)methyl)benzamide] | 11000 nM | –
2 nM | 80 nM | O=C(CC1CCN(CC2(NS(=O)(=O)C3CC3)CCCC2)CC1)Nc1cc(C(F)(F)F)cc(C(F)(F)F)c1 [Compound 179, N-(3,5-bis(trifluoromethyl)phenyl)-2-(1-((1-(cyclopropanesulfonamido)cyclopentyl)methyl)piperidin-4-yl) acetamide] | 330 nM | –
< 300 nM | 140 nM | COc1cc(F)cc(C(=O)NCC2CCN(CCNC(=O)C3(C(F)(F)F)CC3)CC2)c1 [Compound 499, 3-fluoro-5-methoxy-N-((1-(2-(1-(trifluoromethyl)cyclopropanecarbox-amido)ethyl)piperidin-4-yl)methyl) benzamide] | 11100 nM | –
< 300 nM | 170 nM | Cc1cc(C)cc(C(=O)NCC2CCN(CC(=O)NC(C)(C)C)CC2)c1 [Compound 362, N-((1-(2-(tert-butylamino)-2-oxoethyl)piperidin-4-yl)methyl)-3,5-dimethylbenzamide] | – | ≥ 8300 nM
< 300 nM | 90 nM | CC(C)(C(=O)NCCN1CCC(CNC(=O)c2cccc(C(F)(F)F)c2)CC1)C(F)(F)F [Compound 492, N-((1-(2-(3,3,3-trifluoro-2,2-dimethylpropanamido)ethyl)piperidin-4-yl)methyl)-3-(trifluoromethyl)benzamide] | 4700 nM | –
< 300 nM | 110 nM | COc1cc(OC)cc(C(=O)NCC2CCN(CC(=O)NC3(C)CCC3)CC2)c1 [Compound 478, 3,5-dimethoxy-N-((1-(2-(1-methylcyclobutylamino)-2-oxoethyl)piperidin-4-yl)methyl) benzamide] | – | ≥ 16600 nM
< 300 nM | 90 nM | O=C(NCC1CCN(CCNC(=O)C2(C(F)(F)F)CCC2)CC1)c1cc(F)cc(Cl)c1 [Compound 511, 3-chloro-5-fluoro-N-((1-(2-(1-(trifluoromethyl)cyclobutanecarboxamido)ethyl)piperidin-4-yl)methyl)benzamide] | 2900 nM | –
< 300 nM | 60 nM | O=C(NCC1CCN(CC(=O)N2CCC[C@H]2C(F)(F)F)CC1)c1cccc(OC(F)(F)F)c1 [Compound 471, (S)-N-((1-(2-oxo-2-(2-(trifluoromethyl)pyrrolidin-1-yl)ethyl)piperidin-4-yl)methyl)-3-(trifluoromethoxy)benzamide] | 2300 nM | –
< 300 nM | 160 nM | CC1(C)COCCN1C(=O)CN1CCC(CNC(=O)c2cc(C(F)(F)F)cc(C(F)(F)F)c2)CC1 [Compound 578, N-((1-(2-(3,3-dimethylmorpholino)-2-oxoethyl)piperidin-4-yl)methyl)-3,5-bis(trifluoromethyl)benzamide] | 5400 nM | –
< 300 nM | 160 nM | CC(C)(C)NC(=O)CN1CCC(CNC(=O)c2cc(F)cc(C(F)(F)F)c2)CC1 [Compound 376, N-((1-(2-(tert-butylamino)-2-oxoethyl)piperidin-4-yl)methyl)-3-fluoro-5-(trifluoromethyl)benzamide] | 11000 nM | –
